From patent US20240335431A1, “1-H-PYRROLO[2,3-c]PYRIDINE COMPOUNDS” (Acerta Pharma B.V., priority 2023, published 2024)

What follows are compounds tested against muscarinic M2 receptor (Homo sapiens (Human), UniProt P08172) (assay: Muscarinic M2 receptor binding assay (assay 1)). Conditions: [3H]AF-DX 384 2 nM, Cheng Prusoff.
Chain of muscarinic M2 receptor (P08172 whole entry): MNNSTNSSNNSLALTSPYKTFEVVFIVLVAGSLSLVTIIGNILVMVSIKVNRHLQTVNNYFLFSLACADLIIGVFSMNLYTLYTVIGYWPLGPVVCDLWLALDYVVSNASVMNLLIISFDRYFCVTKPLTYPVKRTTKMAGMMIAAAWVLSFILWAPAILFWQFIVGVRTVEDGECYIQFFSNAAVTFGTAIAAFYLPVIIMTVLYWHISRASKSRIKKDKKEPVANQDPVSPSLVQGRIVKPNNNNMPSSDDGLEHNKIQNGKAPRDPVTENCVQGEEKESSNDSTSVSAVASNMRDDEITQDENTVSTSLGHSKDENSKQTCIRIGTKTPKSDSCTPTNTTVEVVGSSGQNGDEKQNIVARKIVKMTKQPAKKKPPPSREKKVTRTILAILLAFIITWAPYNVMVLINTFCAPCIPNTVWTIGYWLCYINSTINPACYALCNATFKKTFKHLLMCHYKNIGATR
Method: Cell membrane homogenates (60 μg protein) were incubated for 60 minutes at 22° C. with 2 nM [3H]AF-DX 384 in the absence or presence of the test compound in a buffer containing 50 mM Tris-HCl (pH 7.4), 120 mM NaCl, 5 mM KCl, 5 mM MgCl2, and 1 mM EDTA. Nonspecific binding was determined in the presence of 1 μM atropine. Following incubation, the samples were filtered rapidly under vacuum through glass fiber filters (GF/B, Packard) presoaked with 0.3% PEI and rinsed several times with ice-cold 50 mM Tris-HCl using a 96-sample cell harvester (Unifilter, Packard). The filters were dried then counted for radioactivity in a scintillation counter (Topcount, Packard) using a scintillation cocktail (Microscint 0, Packard). The results were expressed as a percent inhibition of the control radioligand specific binding, from which the Ki was calculated. Data were analyzed using software developed at Cerep (Hill software) and validated by comparison with data generated by the commercial software SigmaPlot®4.0 for Windows® (© 1997 by SPSS Inc.). The inhibition constant, Ki, was calculated using the Cheng Prusoff equation:
where L=concentration of ligand in the assay, and Kd=affinity of the ligand for the receptor. The standard reference compound was methoctramine, which was tested in each experiment at several concentrations to obtain a competition curve from which its IC50 was calculated.
`COCCN(C)CCC[C@H](C(C)C)N1CCC(C(=O)c2cn(-c3ccc(F)cc3C(=O)N(C(C)C)C(C)C)c3cnccc23)CC1` (racemic) [Example 23, rac-(R)-5-Fluoro-N,N-diisopropyl-2-(3-(1-(6-((2-methoxyethyl)(methyl)amino)-2-methylhexan-3-yl)piperidine-4-carbonyl)-1H-pyrrolo[2,3-c]pyridin-1-yl)benzamide] was tested, and the Ki was 0.1 µM. `CC(C)N(C(=O)c1cc(F)ccc1-n1cc(C(=O)C2CCN(C(=O)[C@H]3NC[C@@H]4CC[C@@H]43)CC2)c2ccncc21)C(C)C` (relative stereo) [Example 25, rel-2-(3-(1-((1R,2R,5S)-3-Azabicyclo[3.2.0]heptane-2-carbonyl)piperidine-4-carbonyl)-1H-pyrrolo[2,3-c]pyridin-1-yl)-5-fluoro-N,N-diisopropylbenzamide] showed a Ki of 1.9 µM. With `Cc1c(C(=O)C2CCN(C(=O)[C@H]3NC[C@@H]4C[C@@H]43)CC2)c2ccncc2n1-c1ccc(F)cc1C(=O)N(C(C)C)C(C)C` (single isomer, unassigned) [Example 55-1] the Ki was 3.8 µM. `Cc1c(C(=O)C2CCN(C(=O)[C@@H]3CCC(C)(C)N3)CC2)c2ccncc2n1-c1ccc(F)cc1C(=O)N(C(C)C)C(C)C` (single isomer, unassigned) [Example 56-1] showed a Ki of 7.4 µM. For `Cc1c(C(=O)C2CCN(C(=O)[C@H]3NC[C@@H]4C[C@@H]43)CC2)c2ccncc2n1-c1ccc(F)cc1C(=O)N(C(C)C)[C@H](C)C(F)(F)F` (single isomer, unassigned) [Example 57-1], the Ki was > 100 µM. `CC(C)N(C(=O)c1cc(F)ccc1-n1cc(C(=O)[C@H]2CCN(C[C@H]3CC[C@H](NS(C)(=O)=O)CC3)C2)c2ccncc21)C(C)C` [Example 1, 5-Fluoro-N,N-diisopropyl-2-(3-((S)-1-(((1r,4S)-4-(methylsulfonamido)-cyclohexyl)methyl)pyrrolidine-3-carbonyl)-1H-pyrrolo[2,3-c]pyridin-1-yl)benzamide] gave a Ki of 8.1 µM. In the case of `CC(C)N(C(=O)c1cc(F)ccc1-n1cc(C(=O)C2CN(C(=O)[C@H]3NC4CCC3CC4)C2)c2ccncc21)C(C)C` [Example 6, (S)-2-(3-(1-(2-Azabicyclo[2.2.2]octane-3-carbonyl)azetidine-3-carbonyl)-1H-pyrrolo[2,3-c]pyridin-1-yl)-5-fluoro-N,N-diisopropylbenzamide], the Ki is reported as 2.3 µM. `CCN(C(=O)c1cc(F)ccc1-n1cc(C(=O)C2CN(C(=O)[C@H]3N[C@@H]4CC[C@H]3C4)C2)c2ccncc21)C(C)C` [Example 8, 2-(3-(1-((1R,3S,4S)-2-Azabicyclo[2.2.1]heptane-3-carbonyl)azetidine-3-carbonyl)-1H-pyrrolo[2,3-c]pyridin-1-yl)-N-ethyl-5-fluoro-N-isopropylbenzamide] gave a Ki of 8 µM. Compound `CC(C)c1cnccc1-c1cc(F)ccc1-n1cc(C(=O)C2CN(C(=O)[C@H]3N[C@@H]4CC[C@H]3C4)C2)c2ccncc21.O=CO` [Example 11, (1-((1R,3S,4S)-2-Azabicyclo[2.2.1]heptane-3-carbonyl)azetidin-3-yl)(1-(4-fluoro-2-(3-isopropylpyridin-4-yl)phenyl)-1H-pyrrolo[2,3-c]pyridin-3-yl)methanone 1·formic acid] has a Ki of 5 µM. Work on `CC(C)c1ncsc1-c1cc(F)ccc1-n1cc(C(=O)C2CN(C(=O)[C@H]3N[C@@H]4CC[C@H]3C4)C2)c2ccncc21.O=CO` [Example 12, (1-((1R,3S,4S)-2-Azabicyclo[2.2.1]heptane-3-carbonyl)azetidin-3-yl)(1-(4-fluoro-2-(4-isopropylthiazol-5-yl)phenyl)-1H-pyrrolo[2,3-c]pyridin-3-yl)methanone 1·formic acid] yielded a Ki of 6.9 µM. `CC(C)(F)c1ncccc1-c1cc(F)ccc1-n1cc(C(=O)C2CN(C(=O)[C@H]3N[C@@H]4CC[C@H]3C4)C2)c2ccncc21` [Example 13, (1-((1R,3S,4S)-2-Azabicyclo[2.2.1]heptane-3-carbonyl)azetidin-3-yl)(1-(4-fluoro-2-(2-(2-fluoropropan-2-yl)pyridin-3-yl)phenyl)-1H-pyrrolo[2,3-c]pyridin-3-yl)methanone] showed a Ki of 9.7 µM. With `CC(C)N(C(=O)c1cc(F)ccc1-n1cc(C(=O)C2CN(C(=O)[C@H]3N[C@@H]4CC[C@H]3C4)C2)c2ccnc(F)c21)C(C)C` [Example 15, 2-(3-(1-((1R,3S,4S)-2-Azabicyclo[2.2.1]heptane-3-carbonyl)azetidine-3-carbonyl)-7-fluoro-1H-pyrrolo[2,3-c]pyridin-1-yl)-5-fluoro-N,N-diisopropylbenzamide] the Ki was 13.6 µM. `C=C1C[C@@H]2CC[C@H]1[C@@H](C(=O)N1CCC(C(=O)c3cn(-c4ccc(F)cc4C(=O)N(C(C)C)C(C)C)c4cnccc34)CC1)N2` [Example 18, 5-Fluoro-N,N-diisopropyl-2-(3-(1-((1S,3S,4R)-5-methylene-2-azabicyclo[2.2.2]-octane-3-carbonyl)piperidine-4-carbonyl)-1H-pyrrolo[2,3-c]pyridin-1-yl)benzamide] showed a Ki of 1 µM. `CC(C)N(C(=O)c1cc(F)ccc1-n1cc(C(=O)C2CCN(C(=O)[C@H]3NC[C@@H]4CCC[C@@H]43)CC2)c2ccncc21)C(C)C` [Example 21, 5-Fluoro-N,N-diisopropyl-2-(3-(1-((1S,3αR,6αS)-octahydrocyclopenta[c]pyrrole-1-carbonyl)piperidine-4-carbonyl)-1H-pyrrolo[2,3-c]pyridin-1-yl)benzamide] showed a Ki of 0.5 µM. `CC(C)N(C(=O)c1cc(F)ccc1-n1cc(C(=O)C2CCN(C(=O)[C@H]3N[C@H]4C[C@@H]3[C@@H](F)C4)CC2)c2ccncc21)C(C)C` [Example 22, 5-Fluoro-2-(3-(1-((1S,3S,4S,5S)-5-fluoro-2-azabicyclo[2.2.1]heptane-3-carbonyl)piperidine-4-carbonyl)-1H-pyrrolo[2,3-c]pyridin-1-yl)-N,N-diisopropylbenzamide] showed a Ki of 0.7 µM. Compound `CC(C)N(C(=O)c1cc(F)ccc1-n1cc(C(=O)C2CCN(C(=O)[C@@H]3CCC4(CC4)N3)CC2)c2ccncc21)C(C)C` [Example 24, (S)-2-(3-(1-(4-Azaspiro[2.4]heptane-5-carbonyl)piperidine-4-carbonyl)-1H-pyrrolo[2,3-c]pyridin-1-yl)-5-fluoro-N,N-diisopropylbenzamide] has a Ki of 1.2 µM. `CC(C)N(C(=O)c1cc(F)ccc1-n1cc(C(=O)C2CCN(C(=O)[C@@H]3CC4(CC4)CN3)CC2)c2ccncc21)C(C)C` [Example 26, (S)-2-(3-(1-(5-Azaspiro[2.4]heptane-6-carbonyl)piperidine-4-carbonyl)-1H-pyrrolo[2,3-c]pyridin-1-yl)-5-fluoro-N,N-diisopropylbenzamide] was tested, and the Ki was 2.6 µM. With `CC(C)N(C(=O)c1cc(F)ccc1-n1cc(C(=O)C2CCN(C(=O)[C@@H]3CCC(C)(C)N3)CC2)c2ccncc21)C(C)C` [Example 27, (S)-2-(3-(1-(5,5-Dimethylpyrrolidine-2-carbonyl)piperidine-4-carbonyl)-1H-pyrrolo[2,3-c]pyridin-1-yl)-5-fluoro-N,N-diisopropylbenzamide] the Ki was 1.6 µM. For `C[C@@H]1CCC[C@H](C)N1C(=O)c1cc(F)ccc1-n1cc(C(=O)C2CCN(C(=O)[C@H]3N[C@@H]4CC[C@H]3C4)CC2)c2ccncc21` [Example 33, (1-((1R,3S,4S)-2-Azabicyclo[2.2.1]heptane-3-carbonyl)piperidin-4-yl)(1-(2-((2R,6S)-2,6-dimethylpiperidine-1-carbonyl)-4-fluorophenyl)-1H-pyrrolo[2,3-c]pyridin-3-yl)methanone], the Ki was 0.3 µM. `CC(C)c1ccncc1-c1cc(F)ccc1-n1cc(C(=O)C2CCN(C(=O)[C@H]3N[C@@H]4CC[C@H]3C4)CC2)c2ccncc21` [Example 41, (1-((1R,3S,4S)-2-Azabicyclo[2.2.1]heptane-3-carbonyl)piperidin-4-yl)(1-(4-fluoro-2-(4-isopropylpyridin-3-yl)phenyl)-1H-pyrrolo[2,3-c]pyridin-3-yl)methanone] was tested, and the Ki was 0.1 µM. `CC(C)c1ncsc1-c1cc(F)ccc1-n1cc(C(=O)C2CCN(C(=O)[C@H]3N[C@@H]4CC[C@H]3C4)CC2)c2ccncc21.O=CO` [Example 42, (1-((1R,3S,4S)-2-Azabicyclo[2.2.1]heptane-3-carbonyl)piperidin-4-yl)(1-(4-fluoro-2-(4-isopropylthiazol-5-yl)phenyl)-1H-pyrrolo[2,3-c]pyridin-3-yl)methanone 1·formic acid] showed a Ki of 0.5 µM. Work on `CC(C)N(C(=O)c1cc(F)ccc1-n1cc(C(=O)C2CCN(C(=O)[C@H]3N[C@@H]4CC[C@H]3C4)CC2)c2c(F)cncc21)C(C)C.O=CO` [Example 44, 2-(3-(1-((1R,3S,4S)-2-Azabicyclo[2.2.1]heptane-3-carbonyl)piperidine-4-carbonyl)-4-fluoro-1H-pyrrolo[2,3-c]pyridin-1-yl)-5-fluoro-N,N-diisopropylbenzamide 1·formic acid] yielded a Ki of 2.8 µM. With `Cc1c(C(=O)C2CCN(C(=O)[C@H]3NC[C@@H]4C[C@@H]43)CC2)c2ccncc2n1-c1ccc(F)cc1-c1cnccc1C(C)C` [Example 54, (1-((1S,2S,5R)-3-Azabicyclo[3.1.0]hexane-2-carbonyl)piperidin-4-yl)(1-(4-fluoro-2-(4-isopropylpyridin-3-yl)phenyl)-2-methyl-1H-pyrrolo[2,3-c]pyridin-3-yl)methanone] the Ki was 3.5 µM.
